Measured values taken from US8247211B2, “Glycopeptide antibiotics” (American Cyanamid Company, priority 2001, dated 2012).
Numbered stars: 1 amine (or outer) side, 2 acyl side, 3 side chain; on linkers, the order of the positions; unused ones are H or OH. Square brackets hold non-standard residues; d marks the D form. Peptide text beside a SMILES is read from it. ξ: configuration not given here. X1 = N=C1NCC(C(O)C(N[*:1])C(=O)[*:2])N1C1OC(CO)C(O)C(O)C1O; ξEnduracididine(βξ-OH,4'ξ) = N=C1NCC(C(O)C(N)C(=O)O)N1; ξCha(3ξ-Me) = CC(C1CCCCC1)C(N)C(=O)O; Cha = N[CH](CC1CCCCC1)C(=O)O

How the values were obtained:
Experiment in all cases: In vitro antibacterial evaluation: minimum inhibitory concentration (MIC), broth dilution method
Format in all cases: cell-based
Escherichia coli = settings: broth dilution, 18 hours at 35° C.
Streptococcus sp. = settings: broth dilution, 18 hours at 35° C.
In short: (§1)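 Test strains, among them recent clinical isolates carrying methicillin, penicillin and/or vancomycin resistance, were inoculated at 5×10^5 CFU/mL. A broth dilution series spanning 64-0.06 μg/mL in Muller-Hinton II […] (NCCLS M7-A2) defined the MIC as the lowest growth-inhibiting concentration.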

Enterococcus sp. = settings: broth dilution, 18 hours at 35° C.
In short: as §1

Staphylococcus sp. = settings: broth dilution, 18 hours at 35° C.; for MIC Staphylococcus aureus-SMITH (GC 4543): strain SMITH GC 4543
In short: as §1

[1] = Streptococcus agalactiae (GC 4564)
[2] = Streptococcus pneumoniae (ATCC 6301)
[3] = Streptococcus pneumoniae (GC 1894)
[4] = Streptococcus pneumoniae (GC 4565)
[5] = Streptococcus pyogenes (GC 4563)
[6] = Enterococcus faecalis (GC 2242)
[7] = Enterococcus faecalis (GC 2691)
[8] = Enterococcus faecalis (GC 3059)

CC(c1ccccc1)C1NC(=O)CNC(=O)C(CO)NC(=O)C(C(O)C2CNC(=N)N2C2OC(CO)C(O)C(O)C2O)NC(=O)C(C(O)C2CNC(=N)N2)NC(=O)C(Cc2ccc3oc(SCc4ccc5ccccc5c4)nc3c2)NC1=O (stereo not drawn) [Example 46, Cyclo[3-[2-[(naphthylmethyl)thio]-1,3-benzoxazol-5-yl]alanyl-3-(2-iminoimidazolidin-4-yl)-seryl-3-(3-hexopyranosyl-2-iminoimidazolidin-4-yl)serylserylglycyl-β-methylphenylalanyl]]
8 µg/mL: MIC Streptococcus agalactiae (GC 4564) (Streptococcus sp.; [1]) | MIC Streptococcus pneumoniae (ATCC 6301) (Streptococcus sp.; [2]) | MIC Streptococcus pneumoniae (GC 1894) (Streptococcus sp.; [3]) | MIC Streptococcus pneumoniae (GC 4565) (Streptococcus sp.; [4]) | MIC Streptococcus agalactiae (GC 4564) (Streptococcus sp.) | MIC Streptococcus pneumoniae (ATCC 6301) (Streptococcus sp.) | MIC Streptococcus pneumoniae (GC 1894) (Streptococcus sp.) | MIC Streptococcus pneumoniae (GC 4565) (Streptococcus sp.) | MIC Enterococcus faecalis (ATCC 29212) (Enterococcus sp.; Enterococcus faecalis (ATCC 29212)) | MIC Enterococcus faecalis (GC 2242) (Enterococcus sp.; [6]) | MIC Enterococcus faecalis (GC 4552) (Enterococcus sp.; Enterococcus faecalis (GC 4552)) | MIC Enterococcus faecium (GC 4557) (Enterococcus sp.; Enterococcus faecium (GC 4557)) | MIC Enterococcus faecalis (ATCC 29212) (Enterococcus sp.) | MIC Enterococcus faecalis (GC 2242) (Enterococcus sp.) | MIC Enterococcus faecalis (GC 4552) (Enterococcus sp.) | MIC Enterococcus faecium (GC 4557) (Enterococcus sp.) | MIC Coagulase Negative Staphylococcus (GC 4548) (Staphylococcus sp.) | MIC Staphylococcus haemolyticus (GC 4546) (Staphylococcus sp.)
4 µg/mL: MIC Enterococcus avium (GC 4558) (Enterococcus sp.; Enterococcus avium (GC 4558)) | MIC Enterococcus faecalis (GC 4553) (Enterococcus sp.; Enterococcus faecalis (GC 4553)) | MIC Enterococcus faecium (GC 2243) (Enterococcus sp.; Enterococcus faecium (GC 2243)) | MIC Enterococcus avium (GC 4558) (Enterococcus sp.) | MIC Enterococcus faecalis (GC 4553) (Enterococcus sp.) | MIC Enterococcus faecium (GC 2243) (Enterococcus sp.) | MIC Coagulase Negative Staphylococcus (GC 4547) (Staphylococcus sp.) | MIC Coagulase Negative Staphylococcus (GC 4551) (Staphylococcus sp.) | MIC Staphylococcus aureus SMITH (GC 4543) (Staphylococcus sp.) | MIC Staphylococcus aureus-SMITH (GC 4543) (Staphylococcus sp.)
32 µg/mL: MIC Enterococcus faecalis (GC 3059) (Enterococcus sp.; [8]) | MIC Enterococcus faecalis (GC 3059) (Enterococcus sp.)
64 µg/mL: MIC Escherichia coli (ATCC 25922) (Escherichia coli) | MIC Escherichia coli (GC 4559) (Escherichia coli)
2 µg/mL: MIC Coagulase Negative Staphylococcus (GC 4549) (Staphylococcus sp.)
1 µg/mL: MIC Streptococcus pyogenes (GC 4563) (Streptococcus sp.; [5]) | MIC Streptococcus pyogenes (GC 4563) (Streptococcus sp.)
16 µg/mL: MIC Escherichia coli (GC 4560) (Escherichia coli) | MIC Enterococcus faecalis (GC 2691) (Enterococcus sp.; [7]) | MIC Enterococcus faecalis (GC 4554) (Enterococcus sp.; Enterococcus faecalis (GC 4554)) | MIC Enterococcus faecalis (GC 6189) (Enterococcus sp.; Enterococcus faecalis (GC 6189)) | MIC Enterococcus faecium (GC 4556) (Enterococcus sp.; Enterococcus faecium (GC 4556)) | MIC Enterococcus faecalis (GC 2691) (Enterococcus sp.) | MIC Enterococcus faecalis (GC 4554) (Enterococcus sp.) | MIC Enterococcus faecalis (GC 6189) (Enterococcus sp.) | MIC Enterococcus faecium (GC 4556) (Enterococcus sp.)

CC(C1CCCCC1)C1NC(=O)CNC(=O)C(CO)NC(=O)C(C(O)C2CNC(=N)N2C2OC(CO)C(O)C(O)C2O)NC(=O)C(C(O)C2CNC(=N)N2)NC(=O)C(CC2CCCCC2)NC1=O (stereo not drawn) [Example 53, Cyclo[3-cyclohexylalanyl-3-(2-iminoimidazolidin-4-yl)seryl-3-(3-hexopyranosyl-2-iminoimidazolidin-4-yl)serylserylglycyl-3-cyclohexyl-2-aminobutanoyl]] (cyclo(G[ξCha(3ξ-Me)][Cha][ξEnduracididine(βξ-OH,4'ξ)][X1]S); configuration not given here)
2 µg/mL: MIC Enterococcus faecium (GC 2243) (Enterococcus sp.) | MIC Enterococcus faecium (GC 4557) (Enterococcus sp.) | MIC Coagulase Negative Staphylococcus (GC 4547) (Staphylococcus sp.) | MIC Coagulase Negative Staphylococcus (GC 4548) (Staphylococcus sp.) | MIC Coagulase Negative Staphylococcus (GC 4551) (Staphylococcus sp.) | MIC Staphylococcus aureus SMITH (GC 4543) (Staphylococcus sp.) | MIC Staphylococcus aureus-SMITH (GC 4543) (Staphylococcus sp.)
16 µg/mL: MIC Enterococcus faecalis (GC 4554) (Enterococcus sp.)
8 µg/mL: MIC Enterococcus faecalis (GC 2242) (Enterococcus sp.; [6]) | MIC Enterococcus faecalis (GC 2691) (Enterococcus sp.; [7]) | MIC Enterococcus faecalis (GC 3059) (Enterococcus sp.; [8]) | MIC Enterococcus faecalis (ATCC 29212) (Enterococcus sp.) | MIC Enterococcus faecalis (GC 2242) (Enterococcus sp.) | MIC Enterococcus faecalis (GC 2691) (Enterococcus sp.) | MIC Enterococcus faecalis (GC 3059) (Enterococcus sp.) | MIC Enterococcus faecalis (GC 4552) (Enterococcus sp.) | MIC Enterococcus faecium (GC 4556) (Enterococcus sp.)
1 µg/mL: MIC Streptococcus agalactiae (GC 4564) (Streptococcus sp.; [1]) | MIC Streptococcus pneumoniae (ATCC 6301) (Streptococcus sp.; [2]) | MIC Streptococcus pneumoniae (GC 1894) (Streptococcus sp.; [3]) | MIC Streptococcus pyogenes (GC 4563) (Streptococcus sp.; [5]) | MIC Streptococcus agalactiae (GC 4564) (Streptococcus sp.) | MIC Streptococcus pneumoniae (ATCC 6301) (Streptococcus sp.) | MIC Streptococcus pneumoniae (GC 1894) (Streptococcus sp.) | MIC Streptococcus pyogenes (GC 4563) (Streptococcus sp.) | MIC Coagulase Negative Staphylococcus (GC 4549) (Staphylococcus sp.) | MIC Staphylococcus haemolyticus (GC 4546) (Staphylococcus sp.)
4 µg/mL: MIC Escherichia coli (GC 4560) (Escherichia coli) | MIC Streptococcus pneumoniae (GC 4565) (Streptococcus sp.; [4]) | MIC Streptococcus pneumoniae (GC 4565) (Streptococcus sp.) | MIC Enterococcus avium (GC 4558) (Enterococcus sp.) | MIC Enterococcus faecalis (GC 4553) (Enterococcus sp.) | MIC Enterococcus faecalis (GC 6189) (Enterococcus sp.)
